pIC50: −log10 of the molar value.
Biological target: HEK-293 cells transfected with dox-inducible human wild type FGFR3 (Homo sapiens (Human), UniProt P22607)
Assay: FGFR3 pFGFR cell assay (ELISA)
Type: cell-based
Settings: HEK-293 dox-inducible FGFR3, 1 hour compound, 100 ng/ml FGF-acidic
How it was run: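 Doxycycline-induced (1 μg/ml) HEK-293 cells expressing wild-type human FGFR3, treated 1 h with compound (1:3 series, top final 5 μM), then stimulated 5 min with 100 ng/ml FGF-acidic. Phospho-FGFR3 measured by ELISA (total FGFR3 capture, phosphotyrosine detection, OD 450 nm); IC50 from 4-parameter fit of POC values.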

Sequence of HEK-293 cells transfected with dox-inducible human wild type FGFR3 (P22607 23-806): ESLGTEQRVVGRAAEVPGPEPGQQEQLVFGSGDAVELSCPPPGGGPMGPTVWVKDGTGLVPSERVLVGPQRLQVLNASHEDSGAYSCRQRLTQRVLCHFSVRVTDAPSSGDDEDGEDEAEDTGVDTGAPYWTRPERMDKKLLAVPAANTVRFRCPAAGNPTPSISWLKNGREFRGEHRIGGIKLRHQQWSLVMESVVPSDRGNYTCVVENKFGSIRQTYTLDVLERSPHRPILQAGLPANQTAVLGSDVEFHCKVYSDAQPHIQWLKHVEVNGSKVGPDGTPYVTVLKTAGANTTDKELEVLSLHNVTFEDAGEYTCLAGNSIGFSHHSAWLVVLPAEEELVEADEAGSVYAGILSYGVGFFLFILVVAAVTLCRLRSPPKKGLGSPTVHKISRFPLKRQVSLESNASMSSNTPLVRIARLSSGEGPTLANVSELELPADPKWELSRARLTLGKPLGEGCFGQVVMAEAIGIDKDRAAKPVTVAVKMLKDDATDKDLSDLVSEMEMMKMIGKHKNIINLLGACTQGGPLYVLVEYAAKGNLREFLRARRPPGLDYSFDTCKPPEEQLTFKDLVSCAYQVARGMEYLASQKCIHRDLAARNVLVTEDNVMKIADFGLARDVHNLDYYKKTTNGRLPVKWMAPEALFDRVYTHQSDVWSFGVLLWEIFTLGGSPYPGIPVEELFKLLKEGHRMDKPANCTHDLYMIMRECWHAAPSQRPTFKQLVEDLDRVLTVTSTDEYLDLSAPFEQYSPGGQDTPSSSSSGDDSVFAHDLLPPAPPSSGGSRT

SMILES | pIC50
C=CC(=O)Nc1ccc(CN2CCC(n3cc(-c4cc(OC)c5c(C#N)cnn5c4)cn3)CC2)cc1 [Example 9, N-(4-((4-(4-(3-cyano-4-methoxypyrazolo[1,5-a]pyridin-6-yl)-1H-pyrazol-1-yl)piperidin-1-yl)methyl)phenyl)acrylamide] | 7.55
C=CC(=O)N(C)c1ccc(CN2CCC(n3cc(-c4cc(OC)c5c(C#N)cnn5c4)cn3)CC2)cc1 [Example 10, N-(4-((4-(4-(3-cyano-4-methoxypyrazolo[1,5-a]pyridin-6-yl)-1H-pyrazol-1-yl)piperidin-1-yl)methyl)phenyl)-N-methylacrylamide] | 7.42
C=CC(=O)N1CC(C(=O)N2CCN(c3ccc(-c4cc(OC)c5c(C#N)cnn5c4)cn3)CC2)C1 [Example 111, 6-(6-(4-(1-acryloylazetidine-3-carbonyl)piperazin-1-yl)pyridin-3-yl)-4-methoxypyrazolo[1,5-a]pyridine-3-carbonitrile] | 7.37
C=CS(=O)(=O)N1CCC(C(=O)N2CCC(n3cc(-c4cc(OC)c5c(C#N)cnn5c4)cn3)CC2)CC1 [Example 186, 4-methoxy-6-(1-(1-(1-(vinylsulfonyl)piperi-dine-4-carbonyl)piperidin-4-yl)-1H-pyrazol-4-yl)pyrazolo[1,5-a]pyridine-3-carbonitrile] | 8.22

Biological target: HEK-293 cells transfected with dox-inducible human wild type FGFR2 (Homo sapiens (Human), UniProt P21802)
Sequence (P21802 22-821): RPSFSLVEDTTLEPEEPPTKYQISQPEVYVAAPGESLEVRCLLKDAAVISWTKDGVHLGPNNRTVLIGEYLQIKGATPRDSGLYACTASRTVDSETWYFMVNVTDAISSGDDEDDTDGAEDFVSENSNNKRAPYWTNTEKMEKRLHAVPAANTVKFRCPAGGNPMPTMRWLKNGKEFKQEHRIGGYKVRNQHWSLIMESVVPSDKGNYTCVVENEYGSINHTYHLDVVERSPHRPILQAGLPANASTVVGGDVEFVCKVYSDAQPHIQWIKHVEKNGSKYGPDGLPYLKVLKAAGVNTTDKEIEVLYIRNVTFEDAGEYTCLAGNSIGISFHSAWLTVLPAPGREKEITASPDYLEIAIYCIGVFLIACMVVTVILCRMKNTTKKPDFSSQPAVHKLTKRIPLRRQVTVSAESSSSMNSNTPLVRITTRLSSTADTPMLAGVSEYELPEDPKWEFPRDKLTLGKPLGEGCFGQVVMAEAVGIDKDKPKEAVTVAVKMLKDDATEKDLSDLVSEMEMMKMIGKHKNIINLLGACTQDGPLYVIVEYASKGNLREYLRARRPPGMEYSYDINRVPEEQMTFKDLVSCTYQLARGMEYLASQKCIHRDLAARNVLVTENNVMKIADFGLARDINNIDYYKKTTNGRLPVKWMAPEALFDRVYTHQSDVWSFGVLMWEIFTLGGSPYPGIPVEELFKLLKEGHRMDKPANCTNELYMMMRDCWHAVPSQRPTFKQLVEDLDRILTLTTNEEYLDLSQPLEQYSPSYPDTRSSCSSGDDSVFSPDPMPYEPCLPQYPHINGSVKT
Assay: FGFR2 pFGFR cell assay (ELISA)
Type: cell-based
Settings: HEK-293 dox-inducible FGFR2, 1 hour compound, 30 ng/ml FGF-acidic
Protocol: FGFR2 pFGFR Cell Assay: • HEK-293 cells transfected with dox-inducible human wild type FGFR2 (SEQ ID NO: 3) were plated in a collagen or poly-D-lysine coated 96 well flat bottom plates at 4×10^5 cells/well in complete DMEM medium containing 10% FBS and 1 μg/ml doxycycline and allowed to attach for 24 h at 37° C., 5% CO2. Cells were treated with compound using 1:3 serial dilutions with a maximum final concentration of 5 μM. Compound was incubated on cells for 1 hour at 37° C., 5% CO2. Cells were then stimulated with a final concentration of 30 ng/ml human FGF-acidic (R&D Systems Cat number 232-FA/CF) for 5 minutes at 37° C., 5% CO2. Medium was removed and cells were lysed with lysis buffer containing phosphatase and protease inhibitors. Phospho FGFR2 was measured by ELISA (R&D Systems cat. no. DYC684). The ELISA captures total FGFR2 and detects total phospho tyrosine. Optical density was measured for each well using a Versamax reader at a wavelength of 450 nm. 100 POC was determined using no test compounds and 0 POC was determined using a control compound. The POC values were fit to a 4-parameter logistic curve as a function of the concentration of the compound, and the IC50 value is the point where the curve crosses 50 POC.

SMILES | pIC50
C=CC(=O)Nc1ccc(CN2CCC(n3cc(-c4cc(OC)c5c(C#N)cnn5c4)cn3)CC2)cc1 [Example 9, N-(4-((4-(4-(3-cyano-4-methoxypyrazolo[1,5-a]pyridin-6-yl)-1H-pyrazol-1-yl)piperidin-1-yl)methyl)phenyl)acrylamide] | 7.43
C=CC(=O)N(C)c1ccc(CN2CCC(n3cc(-c4cc(OC)c5c(C#N)cnn5c4)cn3)CC2)cc1 [Example 10, N-(4-((4-(4-(3-cyano-4-methoxypyrazolo[1,5-a]pyridin-6-yl)-1H-pyrazol-1-yl)piperidin-1-yl)methyl)phenyl)-N-methylacrylamide] | 7.44
C=CC(=O)N1CCC(n2cc(-c3cc(OC)c4c(C#N)cnn4c3)cn2)CC1 [Example 11, 6-(1-(1-acryloylpiperidin-4-yl)-1H-pyrazol-4-yl)-4-methoxypyrazolo[1,5-a]pyridine-3-carbonitrile] | 7.85
C=CC(=O)N1CC(C(=O)N2CCC3(CC2)CN(c2ccc(-c4cc(OC)c5c(C#N)cnn5c4)cn2)C3)C1 [Example 102, 6-(6-(7-(1-acryloylazetidine-3-carbonyl)-2,7-diazaspiro[3.5]nonan-2-yl)pyridin-3-yl)-4-methoxypyrazolo[1,5-a]pyridine-3-carbonitrile] | 6.89
C=CC(=O)N1CC(C(=O)N2C[C@@H]3C[C@H]2CN3c2ccc(-c3cc(OC)c4c(C#N)cnn4c3)cn2)C1 [Example 106, 6-(6-((1S,4S)-5-(1-acryloylazetidine-3-carbonyl)-2,5-diazabicyclo[2.2.1]heptan-2-yl)pyridin-3-yl)-4-methoxypyrazolo[1,5-a]pyridine-3-carbonitrile] | 5.92
C=CC(=O)N1CC(CN2C[C@H]3C[C@@H]2CN3c2ccc(-c3cc(OC)c4c(C#N)cnn4c3)cn2)C1 [Example 108, 6-(6-((1R,4R)-5-((1-acryloylazetidin-3-yl)methyl)-2,5-diazabicyclo[2.2.1]heptan-2-yl)pyridin-3-yl)-4-methoxypyrazolo[1,5-a]pyridine-3-carbonitrile] | 6.63
C=CC(=O)N1CC(C(=O)N2CCN(c3ccc(-c4cc(OC)c5c(C#N)cnn5c4)cn3)CC2)C1 [Example 111, 6-(6-(4-(1-acryloylazetidine-3-carbonyl)piperazin-1-yl)pyridin-3-yl)-4-methoxypyrazolo[1,5-a]pyridine-3-carbonitrile] | 6.46
C=CC(=O)N1CC(OC)(C(=O)N2CCC(n3ncc(-c4cc(OC)c5c(Cl)cnn5c4)c3C)CC2)C1 [Example 117, 1-(3-(4-(4-(3-chloro-4-methoxypyrazolo[1,5-a]pyridin-6-yl)-5-methyl-1H-pyrazol-1-yl)piperidine-1-carbonyl)-3-methoxyazetidin-1-yl)prop-2-en-1-one] | 6.55
C=CC(=O)N1CC(CN2CCC(n3ncc(-c4cc(OC)c5c(Cl)cnn5c4)c3C)CC2)C1 [Example 118, 1-(3-((4-(4-(3-chloro-4-methoxypyrazolo[1,5-a]pyridin-6-yl)-5-methyl-1H-pyrazol-1-yl)piperidin-1-yl)methyl)azetidin-1-yl)prop-2-en-1-one] | 6.57
C=CC(=O)N1CC(CN2CCC(n3ncc(-c4cc(OC)c5c(Cl)cnn5c4)c3C)CC2)(OC)C1 [Example 119, 1-(3-((4-(4-(3-chloro-4-methoxypyrazolo[1,5-a]pyridin-6-yl)-5-methyl-1H-pyrazol-1-yl)piperidin-1-yl)methyl)-3-methoxyazetidin-1-yl)prop-2-en-1-one] | 6.49
C=CC(=O)N1CCN(C(=O)N2CCC(n3cc(-c4cc(OC)c5c(C#N)cnn5c4)cn3)CC2)C[C@@H]1CC#N [Example 135, (S)-6-(1-(1-(4-acryloyl-3-(cyanomethyl)piperazine-1-carbonyl)piperidin-4-yl)-1H-pyrazol-4-yl)-4-methoxypyrazolo[1,5-a]pyridine-3-carbonitrile] | 7.08
COc1cc(-c2cnn(C3CCN(C(=O)C4(F)CN(C(=O)/C=C/CN(C)C)C4)CC3)c2C)cn2ncc(C#N)c12 [Example 153, (E)-6-(1-(1-(1-(4-(dimethylamino)but-2-enoyl)-3-fluoroazetidine-3-carbonyl)piperidin-4-yl)-5-methyl-1H-pyrazol-4-yl)-4-methoxypyrazolo [1,5-a]pyridine-3-carbonitrile] | 6.73
COC/C=C/C(=O)N1CC(F)(C(=O)N2CCC(n3ncc(-c4cc(OC)c5c(C#N)cnn5c4)c3C)CC2)C1 [Example 154, (E)-6-(1-(1-(3-fluoro-1-(4-methoxybut-2-enoyl)azetidine-3-carbonyl)piperidin-4-yl)-5-methyl-1H-pyrazol-4-yl)-4-methoxypyrazolo [1,5-a]pyridine-3-carbonitrile] | 6.49
CC#CC(=O)N1CC(F)(C(=O)N2CCC(n3ncc(-c4cc(OC)c5c(C#N)cnn5c4)c3C)CC2)C1 [Example 156, 6-(1-(1-(1-(but-2-ynoyl)-3-fluoroazetidine-3-carbonyl)piperidin-4-yl)-5-methyl-1H-pyrazol-4-yl)-4-methoxypyrazolo [1,5-a]pyridine-3-carbonitrile] | 6.61
COc1cc(-c2cnn(C3CCN(C(=O)C4(OC)CN(C(=O)/C=C/CN(C)C)C4)CC3)c2C)cn2ncc(C#N)c12 [Example 158, (E)-6-(1-(1-(1-(4-(dimethylamino)but-2-enoyl)-3-methoxyazetidine-3-carbonyl)piperidin-4-yl)-5-methyl-1H-pyrazol-4-yl)-4-methoxypyrazolo [1,5-a]pyridine-3-carbonitrile] | 5.81
COc1cc(-c2cnn(C3CCN(CC4(OC)CN(C(=O)/C=C/CN(C)C)C4)CC3)c2C)cn2ncc(C#N)c12 [Example 159, (E)-6-(1-(1-((1-(4-(dimethylamino)but-2-enoyl)-3-methoxyazetidin-3-yl)methyl)piperidin-4-yl)-5-methyl-1H-pyrazol-4-yl)-4-methoxypyrazolo [1,5-a]pyridine-3-carbonitrile] | 6.35
COc1cc(-c2c(C)nn(C3CCN(C(=O)C4(F)CN(C(=O)/C=C/CN(C)C)C4)CC3)c2C)cn2ncc(C#N)c12 [Example 161, (E)-6-(1-(1-(1-(4-(dimethylamino)but-2-enoyl)-3-fluoroazetidine-3-carbonyl)piperidin-4-yl)-3,5-dimethyl-1H-pyrazol-4-yl)-4-methoxypyrazolo [1,5-a]pyridine-3-carbonitrile] | 6.27
COc1cc(-c2nnn(C3CCN(C(=O)C4(F)CN(C(=O)/C=C/CN(C)C)C4)CC3)c2C)cn2ncc(C#N)c12 [Example 164, (E)-6-(1-(1-(1-(4-(dimethylamino)but-2-enoyl)-3-fluoroazetidine-3-carbonyl)piperidin-4-yl)-5-methyl-1H-1,2,3-triazol-4-yl)-4-methoxypyrazolo [1,5-a]pyridine-3-carbonitrile] | 5.93
COc1cc(-c2cnn(C3CCN(C(=O)C4(F)CN(C(=O)/C=C/CN(C)C)C4)CC3)c2C)cn2ncc(Cl)c12 [Example 170, (E)-1-(3-(4-(4-(3-chloro-4-methoxypyrazolo [1,5-a]pyridin-6-yl)-5-methyl-1H-pyrazol-1-yl)piperidine-1-carbonyl)-3-fluoroazetidin-1-yl)-4-(dimethylamino)but-2-en-1-one] | 6.77
COc1cc(-c2cnn(C3CCN(C(=O)C4(OC)CN(C(=O)/C=C/CN(C)C)C4)CC3)c2C)cn2ncc(Cl)c12 [Example 171, (E)-1-(3-(4-(4-(3-chloro-4-methoxypyrazolo [1,5-a]pyridin-6-yl)-5-methyl-1H-pyrazol-1-yl)piperidine-1-carbonyl)-3-methoxyazetidin-1-yl)-4-(dimethylamino)but-2-en-1-one] | 6.58
COc1cc(-c2cnn(C3CCN(C(=O)C4CN(C(=O)C#CCO)C4)CC3)c2)cn2ncc(C#N)c12 [Example 179, 6-(1-(1-(1-(4-hydroxybut-2-ynoyl)azetidine-3-carbonyl)piperidin-4-yl)-1H-pyrazol-4-yl)-4-methoxypyrazolo[1,5-a]pyridine-3-carbonitrile] | 5.77
COc1cc(-c2cnn(C3CCN(C(=O)C4CN(C(=O)/C=C/CCl)C4)CC3)c2)cn2ncc(C#N)c12 [Example 181, (E)-6-(1-(1-(1-(4-chlorobut-2-enoyl)azetidine-3-carbonyl)piperidin-4-yl)-1H-pyrazol-4-yl)-4-methoxypyrazolo[1,5-a]pyridine-3-carbonitrile] | 6.53
C=CS(=O)(=O)N1CCC(C(=O)N2CCC(n3cc(-c4cc(OC)c5c(C#N)cnn5c4)cn3)CC2)CC1 [Example 186, 4-methoxy-6-(1-(1-(1-(vinylsulfonyl)piperi-dine-4-carbonyl)piperidin-4-yl)-1H-pyrazol-4-yl)pyrazolo[1,5-a]pyridine-3-carbonitrile] | 7.38
